Assay results as given in US20260062387A1, “SALT-INDUCIBLE KINASE INHIBITOR COMPOUND AND PHARMACEUTICAL COMPOSITION INCLUDING THE SAME” (MITSUBISHI TANABE PHARMA CORPORATION, priority 2023, published 2026).

Tests used:
Format in all cases: biochemical
GST-tagged SIK2 = GST-tagged SIK2 (Homo sapiens (Human), UniProt Q9H0K1); assay: SIK2 inhibition test (ADP-Glo Max Assay); details: enzyme 3 nM, AMARA Peptide 200 μM, ATP 1 mM, 2 hours room temperature
Procedure, shortened: (§1)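 ADP formed was detected by luciferase luminescence after a 2 h room-temperature reaction with 1 mM ATP, 5 mM MgCl2 and AMARA peptide at 200 μM (SIK1, SIK2) or 100 μM (SIK3). Final GST-enzyme levels were 20 nM SIK1, 3 nM SIK2 and 100 nM SIK3. IC50 came from 16-point concentration-response data.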

GST-tagged SIK1 = GST-tagged SIK1 (Homo sapiens (Human), UniProt P57059); assay: SIK1 inhibition test (ADP-Glo Max Assay); details: enzyme 20 nM, AMARA Peptide 200 μM, ATP 1 mM, 2 hours room temperature
Procedure, shortened: as §1

GST-tagged SIK3 = GST-tagged SIK3 (Homo sapiens (Human), UniProt Q9Y2K2); assay: SIK3 inhibition test (ADP-Glo Max Assay); details: enzyme 100 nM, AMARA Peptide 100 μM, ATP 1 mM, 2 hours room temperature
Procedure, shortened: as §1

Chain of GST-tagged SIK1 (P57059 whole entry): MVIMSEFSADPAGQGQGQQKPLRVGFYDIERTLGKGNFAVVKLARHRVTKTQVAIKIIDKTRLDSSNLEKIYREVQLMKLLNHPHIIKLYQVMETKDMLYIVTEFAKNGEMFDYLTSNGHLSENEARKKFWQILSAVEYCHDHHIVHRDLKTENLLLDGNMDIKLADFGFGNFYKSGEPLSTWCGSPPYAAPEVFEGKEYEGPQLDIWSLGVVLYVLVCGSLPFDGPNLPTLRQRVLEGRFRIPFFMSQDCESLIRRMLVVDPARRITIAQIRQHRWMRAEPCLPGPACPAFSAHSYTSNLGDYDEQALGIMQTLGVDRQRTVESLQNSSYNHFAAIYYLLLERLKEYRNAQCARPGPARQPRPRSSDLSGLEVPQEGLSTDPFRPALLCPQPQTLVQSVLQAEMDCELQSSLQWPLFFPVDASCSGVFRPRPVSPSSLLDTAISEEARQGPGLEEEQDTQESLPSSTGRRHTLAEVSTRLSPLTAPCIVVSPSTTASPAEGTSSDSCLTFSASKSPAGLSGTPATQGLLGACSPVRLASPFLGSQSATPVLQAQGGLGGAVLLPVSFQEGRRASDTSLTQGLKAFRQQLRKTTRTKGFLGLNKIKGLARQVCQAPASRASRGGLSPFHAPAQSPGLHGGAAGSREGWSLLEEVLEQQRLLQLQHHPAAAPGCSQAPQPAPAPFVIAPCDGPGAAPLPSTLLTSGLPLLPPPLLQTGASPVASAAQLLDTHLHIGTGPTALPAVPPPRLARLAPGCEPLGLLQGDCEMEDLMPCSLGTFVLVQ
Chain of GST-tagged SIK2 (Q9H0K1 whole entry): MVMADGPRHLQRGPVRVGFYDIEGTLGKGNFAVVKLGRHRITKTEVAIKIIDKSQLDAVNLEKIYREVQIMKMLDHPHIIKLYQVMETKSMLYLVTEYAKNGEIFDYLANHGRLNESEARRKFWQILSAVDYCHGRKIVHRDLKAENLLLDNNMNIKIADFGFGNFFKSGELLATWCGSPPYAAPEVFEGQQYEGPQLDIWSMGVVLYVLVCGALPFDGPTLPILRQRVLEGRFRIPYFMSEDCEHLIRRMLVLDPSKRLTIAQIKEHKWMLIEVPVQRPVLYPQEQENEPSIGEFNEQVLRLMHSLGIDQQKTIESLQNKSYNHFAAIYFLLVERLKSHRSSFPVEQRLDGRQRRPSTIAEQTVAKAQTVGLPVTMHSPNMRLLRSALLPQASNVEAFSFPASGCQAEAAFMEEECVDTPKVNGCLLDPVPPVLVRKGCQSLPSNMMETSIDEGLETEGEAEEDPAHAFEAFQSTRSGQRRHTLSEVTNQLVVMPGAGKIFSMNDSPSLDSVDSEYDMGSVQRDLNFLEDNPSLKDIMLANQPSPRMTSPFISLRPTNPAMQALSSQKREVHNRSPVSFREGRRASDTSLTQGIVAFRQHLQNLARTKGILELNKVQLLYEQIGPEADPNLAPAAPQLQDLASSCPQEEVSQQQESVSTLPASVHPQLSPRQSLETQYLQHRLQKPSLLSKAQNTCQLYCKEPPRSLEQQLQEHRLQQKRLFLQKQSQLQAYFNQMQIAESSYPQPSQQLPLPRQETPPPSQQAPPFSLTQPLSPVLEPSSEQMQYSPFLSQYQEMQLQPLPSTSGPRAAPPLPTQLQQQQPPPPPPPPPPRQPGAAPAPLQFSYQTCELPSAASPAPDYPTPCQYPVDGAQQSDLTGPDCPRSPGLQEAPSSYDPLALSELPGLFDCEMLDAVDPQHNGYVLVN
Chain of GST-tagged SIK3 (Q9Y2K2 whole entry): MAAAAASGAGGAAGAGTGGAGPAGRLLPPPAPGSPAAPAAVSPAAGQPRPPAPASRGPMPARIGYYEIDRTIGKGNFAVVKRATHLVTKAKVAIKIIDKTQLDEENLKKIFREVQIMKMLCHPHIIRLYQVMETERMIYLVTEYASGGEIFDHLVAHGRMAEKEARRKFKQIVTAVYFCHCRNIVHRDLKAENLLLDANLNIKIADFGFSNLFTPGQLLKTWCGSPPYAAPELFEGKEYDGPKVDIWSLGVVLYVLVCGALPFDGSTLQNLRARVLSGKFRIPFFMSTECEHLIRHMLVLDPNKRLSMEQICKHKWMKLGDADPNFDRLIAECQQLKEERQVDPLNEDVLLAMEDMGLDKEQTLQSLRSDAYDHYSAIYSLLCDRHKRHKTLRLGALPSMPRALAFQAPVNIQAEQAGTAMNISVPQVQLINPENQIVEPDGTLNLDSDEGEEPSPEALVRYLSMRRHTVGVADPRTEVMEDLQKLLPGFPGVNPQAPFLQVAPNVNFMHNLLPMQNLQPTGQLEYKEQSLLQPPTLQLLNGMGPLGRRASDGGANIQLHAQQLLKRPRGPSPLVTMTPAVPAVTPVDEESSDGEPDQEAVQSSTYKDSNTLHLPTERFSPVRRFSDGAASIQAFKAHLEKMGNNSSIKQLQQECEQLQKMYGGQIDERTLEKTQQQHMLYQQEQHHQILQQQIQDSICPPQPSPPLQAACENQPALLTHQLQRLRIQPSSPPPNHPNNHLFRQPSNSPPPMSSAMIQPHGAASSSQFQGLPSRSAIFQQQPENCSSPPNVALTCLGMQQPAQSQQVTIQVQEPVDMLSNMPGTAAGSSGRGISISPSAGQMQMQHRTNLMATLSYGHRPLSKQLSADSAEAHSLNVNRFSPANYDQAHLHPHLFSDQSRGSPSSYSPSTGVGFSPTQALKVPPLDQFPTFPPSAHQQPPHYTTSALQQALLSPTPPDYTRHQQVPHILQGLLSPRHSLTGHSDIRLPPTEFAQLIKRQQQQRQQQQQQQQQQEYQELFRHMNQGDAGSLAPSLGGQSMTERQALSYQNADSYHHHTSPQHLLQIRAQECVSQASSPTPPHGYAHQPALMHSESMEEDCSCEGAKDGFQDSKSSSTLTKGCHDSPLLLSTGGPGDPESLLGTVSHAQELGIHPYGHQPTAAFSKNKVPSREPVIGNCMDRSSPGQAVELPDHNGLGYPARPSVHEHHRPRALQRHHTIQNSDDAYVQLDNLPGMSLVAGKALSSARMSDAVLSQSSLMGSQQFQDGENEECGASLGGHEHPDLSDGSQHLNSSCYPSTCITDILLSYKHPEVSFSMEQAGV

Row | SMILES | IC50 (GST-tagged SIK2) [nM] | IC50 (GST-tagged SIK1) [nM] | IC50 (GST-tagged SIK3) [nM]
1 | COc1cc(-c2c3c(OCc4ccc(C)nc4)cc(-c4cnn(C)c4)cc3nn2C)cc(OC(F)F)c1C(=O)N1CC(O)(C(F)(F)F)C1 [Example 50, [2-(difluoromethoxy)-6-methoxy-4-[2-methyl-6-(1-methylpyrazol-4-yl)-4-[(6-methylpyridin-3-yl)methoxy]indazol-3-yl]phenyl]-[3-hydroxy-3-(trifluoromethyl)azetidin-1-yl]methanone] | 5 | 6.8 | 17.1
2 | COc1cc(-c2c3c(OCc4ccnnc4)cc(-c4cnn(C)c4)cc3nn2C)cc(OC(F)F)c1C(=O)N1CC(O)(C(F)(F)F)C1 [Example 51, [2-(difluoromethoxy)-6-methoxy-4-[2-methyl-6-(1-methylpyrazol-4-yl)-4-(pyridazin-4-ylmethoxy)indazol-3-yl]phenyl]-[3-hydroxy-3-(trifluoromethyl)azetidin-1-yl]methanone] | 8.9 | 8.6 | 14.1
3 | COc1cc(-c2c3c(OCc4cnn(C)c4)cc(-c4cnn(C)c4)cc3nn2C)cc(OC(F)F)c1C(=O)N1CC(O)(C(F)(F)F)C1 [Example 52, [2-(difluoromethoxy)-6-methoxy-4-[2-methyl-6-(1-methylpyrazol-4-yl)-4-[(1-methylpyrazol-4-yl)methoxy]indazol-3-yl]phenyl]-[3-hydroxy-3-(trifluoromethyl)azetidin-1-yl]methanone] | 6 | 6.2 | 9.2
4 | COc1cc(-c2c3c(OCc4nnc(C)o4)cc(-c4cnn(C)c4)cc3nn2C)cc(OC(F)F)c1C(=O)N1CC(O)(C(F)(F)F)C1 [Example 53, [2-(difluoromethoxy)-6-methoxy-4-[2-methyl-4-[(5-methyl-1,3,4-oxadiazol-2-yl)methoxy]-6-(1-methylpyrazol-4-yl)indazol-3-yl]phenyl]-[3-hydroxy-3-(trifluoromethyl)azetidin-1-yl]methanone] | 7.3 | 9.1 | 13.6
5 | COc1cc(-c2c3c(C#N)cc(-c4cnn(CCS(C)(=O)=O)c4)cc3nn2C)cc(OC(F)F)c1C(=O)NCC1(F)CC1 [Example 54, 4-[4-cyano-2-methyl-6-[1-(2-methylsulfonylethyl)pyrazol-4-yl]indazol-3-yl]-2-(difluoromethoxy)-N-[(1-fluorocyclopropyl)methyl]-6-methoxybenzamide] | 3.2 | 10.1 | 5.1
6 | Cn1cc(-c2cc(C#N)c3c(-c4ccc(C(=O)N[C@@H]5CC5(F)F)c(OC(F)F)c4)n(C)nc3c2)cn1 [Example 55, 4-[4-cyano-2-methyl-6-(1-methylpyrazol-4-yl)indazol-3-yl]-N-[(1R)-2,2-difluorocyclopropyl]-2-(difluoromethoxy)benzamide] | 3.5 | 10.4 | 2.4
7 | COc1cc(-c2c3c(C#N)cc(-c4cnn(CC(C)(C)O)c4)cc3nn2C)cc(OC(F)F)c1C(=O)NCC1(F)CC1 [Example 56] | 16.1 | 20 | 11.8
8 | COc1cc(-c2c3c(C#N)cc(-c4cnn(C[C@@H](C)O)c4)cc3nn2C)cc(OC(F)F)c1C(=O)NCC1(F)CC1 [Example 57, 4-[4-cyano-6-[1-[(2R)-2-hydroxypropyl]pyrazol-4-yl]-2-methylindazol-3-yl]-2-(difluoromethoxy)-N-[(1-fluorocyclopropyl)methyl]-6-methoxybenzamide] | 10 | 16 | 9.2
9 | COc1cc(-c2c3c(C#N)cc(-c4cnn(C[C@H](C)O)c4)cc3nn2C)cc(OC(F)F)c1C(=O)NCC1(F)CC1 [Example 58, 4-[4-cyano-6-[1-[(2S)-2-hydroxypropyl]pyrazol-4-yl]-2-methylindazol-3-yl]-2-(difluoromethoxy)-N-[(1-fluorocyclopropyl)methyl]-6-methoxybenzamide] | 6.7 | 13.7 | 6.3
10 | COc1cc(-c2c3c(C#N)cc(-c4cnn(CC5COC5)c4)cc3nn2C)cc(OC(F)F)c1C(=O)NCC1(F)CC1 [Example 59, 4-[4-cyano-2-methyl-6-[1-(oxetan-3-ylmethyl)pyrazol-4-yl]indazol-3-yl]-2-(difluoromethoxy)-N-[(1-fluorocyclopropyl)methyl]-6-methoxybenzamide] | 3.8 | 14.1 | 6.6
11 | COc1cc(-c2c3c(C(F)F)cc(-c4cnn(CC(=O)N(C)C)c4)cc3nn2C)cc(OC(F)F)c1C(=O)N1CC(O)(C(F)(F)F)C1 [Example 60, 2-[4-[3-[3-(difluoromethoxy)-4-[3-hydroxy-3-(trifluoromethyl)azetidin-1-carbonyl]-5-methoxyphenyl]-4-(difluoromethyl)-2-methylindazol-6-yl]pyrazol-1-yl]-N,N-dimethylacetamide] | 4.8 | 6.9 | 4.9
12 | COc1cc(-c2c3c(C(F)F)cc(-c4cnn(CC(=O)N(C)C)c4)cc3nn2C)cc(OC(F)F)c1C(=O)N1CC(O)(C(F)F)C1 [Example 61, 2-[4-[3-[3-(difluoromethoxy)-4-[3-(difluoromethyl)-3-hydroxyazetidin-1-carbonyl]-5-methoxyphenyl]-4-(difluoromethyl)-2-methylindazol-6-yl]pyrazol-1-yl]-N,N-dimethylacetamide] | 7.4 | 4.7 | 7.4
13 | COc1cc(-c2c3c(OC(F)F)cc(-c4cn(C)nn4)cc3nn2C)cc(OC(F)F)c1C(=O)N1CC(O)(C(F)F)C1 [Example 63, [2-(difluoromethoxy)-4-[4-(difluoromethoxy)-2-methyl-6-(1-methyltriazol-4-yl)indazol-3-yl]-6-methoxyphenyl]-[3-(difluoromethyl)-3-hydroxyazetidin-1-yl]methanone] | 4.3 | 7.5 | 9.7
14 | COc1cc(-c2c3c(C(F)F)cc(-c4cnn(CCS(C)(=O)=O)c4)cc3nn2C)cc(OC(F)F)c1C(=O)N1CC(O)(C(F)F)C1 [Example 66, [2-(difluoromethoxy)-4-[4-(difluoromethyl)-2-methyl-6-[1-(2-methylsulfonylethyl)pyrazol-4-yl)indazol-3-yl]-6-methoxyphenyl]-[3-(difluoromethyl)-3-hydroxyazetidin-1-yl]methanone] | 14.1 | 11.4 | 5.7
15 | COc1cc(-c2c3c(C(F)F)cc(-c4cnn(C[C@H](C)O)c4)cc3nn2C)cc(OC(F)F)c1C(=O)N1CC(O)(C(F)F)C1 [Example 67, [2-(difluoromethoxy)-4-[4-(difluoromethyl)-6-[1-[(2S)-2-hydroxypropyl]pyrazol-4-yl]-2-methylindazol-3-yl]-6-methoxyphenyl]-[3-(difluoromethyl)-3-hydroxyazetidin-1-yl]methanone] | 12.7 | 8.5 | 4.8
16 | COc1cc(-c2c3c(C(F)F)cc(-c4cn[nH]c4)cc3nn2C)cc(OC(F)F)c1C(=O)N1CC(O)(C(F)(F)F)C1 [Example 68, [2-(difluoromethoxy)-4-[4-(difluoromethyl)-2-methyl-6-(1H-pyrazol-4-yl)indazol-3-yl]-6-methoxyphenyl]-[3-hydroxy-3-(trifluoromethyl)azetidin-1-yl]methanone] | 14.2 | 9.4 | 2.5
17 | COc1cc(-c2c3c(C(F)F)cc(-c4cn[nH]c4)cc3nn2C)cc(OC(F)F)c1C(=O)N1CC(O)(C(F)F)C1 [Example 69, [2-(difluoromethoxy)-4-[4-(difluoromethyl)-2-methyl-6-(1H-pyrazol-4-yl)indazol-3-yl]-6-methoxyphenyl]-[3-(difluoromethyl)-3-hydroxyazetidin-1-yl]methanone] | 10.9 | 8.3 | 2
18 | COc1cc(-c2c3c(C#N)cc(-c4cn[nH]c4)cc3nn2C)cc(OC(F)F)c1C(=O)N1CC(O)(C(F)(F)F)C1 [Example 70, 3-[3-(difluoromethoxy)-4-[3-hydroxy-3-(trifluoromethyl)azetidin-1-carbonyl]-5-methoxyphenyl]-2-methyl-6-(1H-pyrazol-4-yl)indazole-4-carbonitrile] | 11.2 | 15.3 | 3.7
19 | COc1cc(-c2c3c(C#N)cc(-c4cnn(C)c4)cc3nn2C)cc(OC(F)F)c1C(N)=O [Example 73, 4-[4-cyano-2-methyl-6-(1-methylpyrazol-4-yl)indazol-3-yl]-2-(difluoromethoxy)-6-methoxybenzamide] | 3.8 | 17.4 | 6.5
20 | COc1cc(-c2c3c(C#N)cc(-c4cnn(CC5CS(=O)(=O)C5)c4)cc3nn2C)cc(OC(F)F)c1C(=O)NCC1(F)CC1 [Example 74, 4-[4-cyano-6-[1-[(1,1-dioxothietan-3-yl)methyl]pyrazol-4-yl]-2-methylindazol-3-yl]-2-(difluoromethoxy)-N-[(1-fluorocyclopropyl)methyl]-6-methoxybenzamide] | 2.6 | 8.4 | 6.1
21 | COc1cc(-c2c3c(C#N)cc(-c4cnn(Cc5ncco5)c4)cc3nn2C)cc(OC(F)F)c1C(=O)NCC1(F)CC1 [Example 75] | 2.7 | 14.8 | 13.3
22 | COc1cc(-c2c3c(C#N)cc(-c4cnn(CC5(F)COC5)c4)cc3nn2C)cc(OC(F)F)c1C(=O)NCC1(F)CC1 [Example 76, 4-[4-cyano-6-[1-[(3-fluorooxetan-3-yl)methyl]pyrazol-4-yl]-2-methylindazol-3-yl]-2-(difluoromethoxy)-N-[(1-fluorocyclopropyl)methyl]-6-methoxybenzamide] | 5.3 | 17.6 | 11.7
